Read-outs that look alike come from different tables or passages of the source.
How the values were obtained:
[1] = biological target: T1, Pancreatic lipase (PL) (Sus scrofa, UniProt P00591); assay: Inhibition of PL-mediated 4-MUO hydrolysis; assay type: biochemical; conditions: 4-MUO substrate, mean ± SD (n = 3)
T1 construct: purchased Sigma Aldrich type II, Lot.SLBN9099V
T1 sequence (P00591 1-450): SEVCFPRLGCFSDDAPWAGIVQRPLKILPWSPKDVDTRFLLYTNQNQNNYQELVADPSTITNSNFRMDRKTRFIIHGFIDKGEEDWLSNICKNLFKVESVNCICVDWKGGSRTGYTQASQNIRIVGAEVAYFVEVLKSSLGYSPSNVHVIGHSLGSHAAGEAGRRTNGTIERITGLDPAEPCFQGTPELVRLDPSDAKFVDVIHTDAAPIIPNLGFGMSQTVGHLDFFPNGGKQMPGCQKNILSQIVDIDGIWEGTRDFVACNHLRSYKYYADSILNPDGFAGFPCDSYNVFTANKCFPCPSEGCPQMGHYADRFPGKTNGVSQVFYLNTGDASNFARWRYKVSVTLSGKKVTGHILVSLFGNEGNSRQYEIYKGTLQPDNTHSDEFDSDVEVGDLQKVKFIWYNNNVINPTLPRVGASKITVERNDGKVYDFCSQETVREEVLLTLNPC
Protocol: In addition, the background fluorescence in the absence of an enzyme source (PL) (add the same amount of citrate-Na2HPO4 buffer) was measured. […] Then start the reaction by adding 2 µL of 4-MUO probe (3 µM, final concentration). The fluorescence signal of 4-MU (hydrolytic metabolite) was detected by multi-mode microplate reader (SpectraMax M4, Molecular Devices, Urstein, Austria) with continuous oscillation for 20 min and recorded and analysed at 60 s intervals. The excitation wavelength and emission wavelength of 4-MU were set at 340 nm and 460 nm, respectively, and the gain value was 500.
(§1) Subsequently, various concentrations of substrates (selected according to Km) and different concentrations of inhibitors were used to determine the corresponding reaction rate, and the second slope graph of the Lineweaver–Burk diagram was used as a function of the inhibitor to calculate the corresponding inhibition constant (Ki) value. All kinetic data were fitted by the following kinetic equations (a–c), for competitive (a), non-competitive (b) and mixed inhibition (c): (a) V=(VmaxS)/[Km(1+I/Ki)+S] (b) V=(VmaxS)/[(Km+S)×(1+I/Ki)] (c) V=(VmaxS)/[(Km+S)×(1+I/αKi)] where V is the hydrolytic velocity of the reaction, Vmax is the maximum velocity. S and I are substrate (4-MUO, NLMe) and inhibitor (compound 39/41) concentrations, respectively. Ki is the inhibition constant of the tested inhibitor against the target PL and hCES1A; Km is the Michaelis constant (the substrate concentration at half of the Vmax).
All measurements were made in triplicate and the data obtained in the experiment were shown as mean ± SD.

[2] = biological target: T2, hCES1A (Homo sapiens, UniProt P23141); assay: Inhibition of hCES1A-mediated NLMe hydrolysis in human liver microsomes; assay type: biochemical
T2 construct: tissue Bioreclamation IVT lot No. X008067; host or cells: pooled human liver microsomes from 50 donors
T2 sequence (P23141 18-567): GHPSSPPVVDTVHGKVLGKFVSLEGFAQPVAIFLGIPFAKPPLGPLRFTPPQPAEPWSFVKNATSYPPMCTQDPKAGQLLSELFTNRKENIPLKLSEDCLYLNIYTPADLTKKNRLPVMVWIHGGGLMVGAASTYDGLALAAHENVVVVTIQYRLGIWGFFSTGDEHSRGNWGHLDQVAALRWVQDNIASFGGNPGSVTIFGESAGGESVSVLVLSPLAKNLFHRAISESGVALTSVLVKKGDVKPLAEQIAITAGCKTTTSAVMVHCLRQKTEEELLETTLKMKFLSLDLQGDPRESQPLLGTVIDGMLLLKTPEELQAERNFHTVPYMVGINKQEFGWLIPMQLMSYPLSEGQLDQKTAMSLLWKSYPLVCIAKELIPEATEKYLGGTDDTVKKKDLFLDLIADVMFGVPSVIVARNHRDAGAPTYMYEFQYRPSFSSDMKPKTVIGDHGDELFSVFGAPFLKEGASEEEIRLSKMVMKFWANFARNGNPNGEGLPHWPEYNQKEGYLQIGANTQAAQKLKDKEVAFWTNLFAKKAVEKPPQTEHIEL
Protocol: N-Alkylated D-luciferin methyl ester (NLMe), a Specific probe for hCES1A[45], was used for assessing the inhibitory effects for triterpenoids, and BNPP was used as a positive inhibitor of hCES1A. […] Then NLMe (2 µL, 0.15 mM) was added to start the reaction. After shaking the reaction in 37 °C incubator for 10 min, 50 µL of reaction solution was removed and mixed with LDR (50 µL) to terminate the reaction. A multi-mode microplate reader was used to detect the luminescence signal of NL (the hydrolysed metabolite of NLMe). The luminescence product of NL was measured at 580 nm (gain: 140). The final volume ratio of DMSO was less than 1% (V/V).
as §1
All measurements were made in triplicate and the data obtained in the experiment were shown as mean ± SD. The IC50 and Ki values of the compounds with strong inhibitory effect were evaluated by nonlinear regression with graphpad prism 7.0 software (GraphPad Software, Inc., La Jolla, CA).

[3] = NLMe substrate, HLM, mean ± SD (n = 3), read-out: IC50 (µM) hCES1A

SMILES	IC50 [1] [µM]	IC50 [2] [µM]	IC50 [2, 3] [µM]
C=C(C)[C@@H]1CC[C@]2(C)CC[C@]3(C)[C@H](CC[C@@H]4[C@@]5(C)CC[C@H](O)C(C)(C)[C@@H]5CC[C@]43C)[C@@H]12 [Compound 15]	> 100		
CC(C)=CCC[C@](C)(O)[C@H]1CC[C@]2(C)[C@@H]1[C@H](O)C[C@@H]1[C@@]3(C)CC[C@H](O)C(C)(C)[C@@H]3[C@@H](O[C@@H]3O[C@H](CO)[C@@H](O)[C@H](O)[C@H]3O)C[C@]12C [Compound 24]	> 100		
CC(C)=CCC[C@](C)(O[C@@H]1O[C@H](CO)[C@@H](O)[C@H](O)[C@H]1O)[C@H]1CC[C@]2(C)[C@@H]1[C@H](O)C[C@@H]1[C@@]3(C)CC[C@H](O)C(C)(C)[C@@H]3[C@@H](O)C[C@]12C [Compound 18]	> 100		
C=C(CC[C@@H](C(=O)O)[C@H]1[C@H](O)C[C@@]2(C)C3=C(CC[C@]12C)[C@@]1(C)CC[C@H](OC(C)=O)C(C)(C)[C@@H]1CC3)C(C)C [Compound 16, pachymic acid]	> 100		
CC1(C)CC[C@]2(C(=O)O)[C@H](O)C[C@]3(C)C(=CC[C@@H]4[C@@]5(C)C[C@@H](O)[C@H](O)[C@@](C)(CO)[C@@H]5CC[C@]43C)[C@@H]2C1 [Compound 4, polygalacic acid]	> 100		
C=C(C)[C@@H]1CC[C@]2(C(=O)O)CC[C@]3(C)[C@H](CC[C@@H]4[C@@]5(C)CC[C@H](O)C(C)(C)[C@@H]5CC[C@]43C)[C@@H]12 [Compound 14]	> 100		
CC(=O)OC1CCC2(C)C(CCC3(C)C2CC=C2C4CC(C)(C)CCC4(C(=O)O)CCC23C)C1(C)C (centres unmarked) [Compound 31]	3.67 ± 0.72	0.051 ± 0.005	
CC(C)=CCCC(C)(OC1OC(CO)C(O)C(O)C1O)C1CCC2(C)C1C(O)CC1C3(C)CCC(O)C(C)(C)C3C(OC3OC(CO)C(O)C(O)C3OC3OC(CO)C(O)C(O)C3O)CC12C (centres unmarked) [Compound 20]	29.7 ± 5.02		
CC(CC(=O)C[C@@H](C)[C@H]1CC(=O)[C@@]2(C)C3=C(C(=O)C[C@]12C)[C@@]1(C)CC[C@H](O)C(C)(C)[C@@H]1C[C@@H]3O)C(=O)O (some centres unmarked) [Compound 17, ganoderic acid B]	> 100		
CC1CCC2(C(=O)O)CCC3(C)C(=CCC4C5(C)C=C(O)C(=O)C(C)(C)C5CCC43C)C2C1C (centres unmarked) [Compound 43]	5.21 ± 1.24		0.032 ± 0.003
CC(=O)OC1CCC2(C)C(CCC3(C)C2CC=C2C4CC(C)(C)CCC4(C(N)=O)CCC23C)C1(C)C (centres unmarked) [Compound 32]	7.02 ± 0.59		0.11 ± 0.013
O=[N+]([O-])c1ccc(OP(=O)(O)Oc2ccc([N+](=O)[O-])cc2)cc1 [Compound 29, Bis-p-nitrophenyl phosphate, reference compound]	> 100		0.36 ± 0.03
CC1(C)[C@@H](O)CC[C@]2(C)[C@H]3C(=O)C=C4[C@@H]5C[C@@](C)(C(=O)O)CC[C@]5(C)CC[C@@]4(C)[C@]3(C)CC[C@@H]12 [Compound 9, glycyrrhetic acid]	28.3 ± 9.47		
COC(=O)C12CCC(C)(C)CC1C1=CCC3C4(C)CCC(O)C(C)(C)C4CCC3(C)C1(C)CC2 (centres unmarked) [Compound 36]	30.6 ± 3.58		0.856 ± 0.15
CC(C)=CCC[C@](C)(O[C@@H]1O[C@H](CO)[C@@H](O)[C@H](O)[C@H]1O)[C@H]1CC[C@]2(C)[C@@H]1[C@H](O)C[C@@H]1[C@@]3(C)CC[C@H](O)C(C)(C)[C@@H]3[C@@H](O[C@@H]3O[C@H](CO)[C@@H](O)[C@H](O)[C@H]3O[C@@H]3O[C@@H](C)[C@H](O)[C@@H](O)[C@H]3O)C[C@]12C [Compound 21]	> 100		
CC(C)=CCC[C@](C)(O[C@@H]1O[C@H](CO)[C@@H](O)[C@H](O)[C@H]1O)[C@H]1CC[C@]2(C)[C@@H]1[C@H](O)C[C@@H]1[C@@]3(C)CC[C@H](O)C(C)(C)[C@@H]3[C@@H](O[C@@H]3O[C@H](CO)[C@@H](O)[C@H](O)[C@H]3O)C[C@]12C [Compound 22]	> 100		
CC1CCC2(C(=O)O)CCC3(C)C(=CCC4C5(C)CCC(=O)C(C)(C)C5CCC43C)C2C1C (centres unmarked) [Compound 40]	6.94 ± 1.37		0.93 ± 0.18
C[C@H]1[C@H](C)CC[C@]2(C(=O)O)CC[C@]3(C)C(=CC[C@@H]4[C@@]5(C)CC[C@H](O)C(C)(C)[C@@H]5CC[C@]43C)[C@H]12 [Compound 5, ursolic acid]	6.16 ± 0.97		0.04 ± 0.004
CC1(C)CC[C@]2(C(=O)O[C@@H]3O[C@H](CO)[C@@H](O)[C@H](O)[C@H]3O)CC[C@]3(C)C(=CC[C@@H]4[C@@]5(C)CC[C@H](O[C@@H]6O[C@H](C(=O)O)[C@@H](O)[C@H](O)[C@H]6O[C@@H]6O[C@H](CO)[C@@H](O)[C@H](O)[C@H]6O)C(C)(C)[C@@H]5CC[C@]43C)[C@@H]2C1 [Compound 26]	> 100		
C=C(C)[C@@H]1CC[C@]2(C=O)CC[C@]3(C)[C@H](CC[C@@H]4[C@@]5(C)CC[C@H](O)C(C)(C)[C@@H]5CC[C@]43C)[C@@H]12 [Compound 13]	> 100		
CC1(C)[C@@H](O[C@H]2O[C@H](C(=O)O)[C@@H](O)[C@H](O)[C@H]2O[C@@H]2O[C@H](C(=O)O)[C@@H](O)[C@H](O)[C@H]2O)CC[C@]2(C)[C@H]3C(=O)C=C4[C@@H]5C[C@@](C)(C(=O)O)CC[C@]5(C)CC[C@@]4(C)[C@]3(C)CC[C@@H]12 [Compound 10, glycyrrhizic acid]	> 100		
CC(C)=CCC[C@](C)(O[C@@H]1O[C@H](CO)[C@@H](O)[C@H](O)[C@H]1O)[C@H]1CC[C@]2(C)[C@@H]1[C@H](O)C[C@@H]1[C@@]3(C)CC[C@H](O)C(C)(C)[C@@H]3[C@@H](O[C@@H]3O[C@H](CO)[C@@H](O)[C@H](O)[C@H]3O[C@@H]3OC[C@@H](O)[C@H](O)[C@H]3O)C[C@]12C [Compound 27]	> 100		
CC(C)=CC/C=C(\C)[C@H]1CC[C@]2(C)[C@@H]1[C@H](O)C[C@@H]1[C@@]3(C)CC[C@H](O)C(C)(C)[C@@H]3[C@@H](O[C@@H]3O[C@H](CO)[C@@H](O)[C@H](O)[C@H]3O)C[C@]12C [Compound 25]	> 100		
CC1(C)CCC2(CO)CCC3(C)C(=CCC4C5(C)CCC(O)C(C)(C)C5CCC43C)C2C1 (centres unmarked) [Compound 37]	11.8 ± 1.6		4.11 ± 0.77
CCCCCCCCCCC[C@@H](C[C@@H]1OC(=O)[C@H]1CCCCCC)OC(=O)[C@H](CC(C)C)NC=O [Compound 28, Orlistat, reference compound]			0.035 ± 0.003
CC(C)=CCC=C(C)C1CCC2(C)C1C(O)CC1C3(C)CCC(O)C(C)(C)C3C(OC3OC(CO)C(O)C(O)C3OC3OC(C)C(O)C(O)C3O)CC12C (centres unmarked) [Compound 19]	74.5 ± 28.4		
CC(C)=CCC[C@](C)(O)[C@H]1CC[C@]2(C)[C@@H]1[C@H](O)C[C@@H]1[C@@]3(C)CC[C@H](O)C(C)(C)[C@@H]3[C@@H](O[C@@H]3O[C@H](CO)[C@@H](O)[C@H](O)[C@H]3O[C@@H]3O[C@@H](C)[C@H](O)[C@@H](O)[C@H]3O)C[C@]12C [Compound 23]	> 100		

— publication PMC8812735, “Discovery of triterpenoids as potent dual inhibitors of pancreatic lipase and human carboxylesterase 1” (Journal of Enzyme Inhibition and Medicinal Chemistry, 2022)
